Several values for one entry are separate records, joined by “and”; a condition that tells them apart may be missing. Equal values may be shown once.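 In this assay, cells in 96-well plates receive the compound at five concentrations for 48 hours. Endpoints are linearly interpolated between the surrounding concentrations. GI50 = concentration required for 50% inhibition of growth. TGI is the concentration that stops growth completely.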
Columns and labels:
Assay in all cases: NCI anticancer screen, dose series, 48 h
SNB-19 CNS = test system: SNB-19 CNS
NCI-H522 lung = test system: NCI-H522 lung
K-562 leukemia = test system: K-562 leukemia
CCRF-CEM leukemia = test system: CCRF-CEM leukemia
SK-OV-3 ovarian = test system: SK-OV-3 ovarian
HCC-2998 colon = test system: HCC-2998 colon
LOX IMVI melanoma = test system: LOX IMVI melanoma
PC-3 prostate = test system: PC-3 prostate
HT29 colon = test system: HT29 colon
MDA-MB-435 = test system: MDA-MB-435

Row | SMILES | TGI (SNB-19 CNS) | GI50 (NCI-H522 lung) | TGI (NCI-H522 lung) | GI50 (K-562 leukemia) | GI50 (CCRF-CEM leukemia) | GI50 (SK-OV-3 ovarian) | TGI (SK-OV-3 ovarian) | GI50 (HCC-2998 colon) | TGI (HCC-2998 colon) | TGI (LOX IMVI melanoma) | TGI (PC-3 prostate) | TGI (HT29 colon) | GI50 (MDA-MB-435) | TGI (MDA-MB-435) | GI50 (SNB-19 CNS) | TGI (CCRF-CEM leukemia) | GI50 (PC-3 prostate) | GI50 (HT29 colon) | TGI (K-562 leukemia) | GI50 (LOX IMVI melanoma)
1 | Cc1cc(-c2c(F)cc3c4nn([C@H]5CC[C@@H](N(C)C)CC5)c(=O)c-4cn(C4CC4)c3c2F)cc(C)n1 | > 100 µM | 0.0325 µM | 0.144 µM and 0.771 µM | 0.164 µM | 0.0033 µM | 0.0546 µM | 0.141 µM and 0.708 µM | 0.0369 µM | 0.108 µM and 1.01 µM | 0.571 µM | > 100 µM | 1.1 µM |  |  |  |  |  |  |  | 
2 | Cc1ccc(-c2nc(/C=N/Nc3cc(C)nc4ccc(Cl)cc34)c(C)o2)cc1 | 3.49 µM |  |  |  | 1.61 µM | 1.78 µM | 3.21 µM | 2.07 µM | 3.77 µM |  | 5.65 µM | 2.5 µM | 1.69 µM | 3.25 µM | 1.84 µM | 4.81 µM | 2.26 µM | 0.664 µM |  | 
3 | CCOC(=O)c1cc(-c2ccc(-c3cc(C(=O)OCC)c(C#N)c(N)c3C#N)cc2)c(C#N)c(N)c1C#N | > 100 µM |  | > 100 µM |  |  |  | > 100 µM |  | > 100 µM | > 100 µM |  | > 100 µM |  |  |  | > 100 µM |  |  | > 100 µM | 
4 | COc1ccc(C2=Nc3ccccc3SC(C)C2)cc1OC (centres undefined) | 40.2 µM |  | 32.1 µM |  |  |  | 39.5 µM |  | 32.6 µM | 32.9 µM |  | 37.2 µM |  |  |  | 87.3 µM |  |  | 56.6 µM | 
5 | Cc1c(C(=O)O)n(C)c(=O)n(C)c1=O | > 100 µM |  | > 100 µM |  |  |  | > 100 µM |  | > 100 µM | > 100 µM |  | > 100 µM |  |  |  | > 100 µM |  |  | > 100 µM | 
6 | COc1ccccc1S(=O)(=O)Nc1ccc2c3c(cc(CCC(=O)NCCCCNc4cccc5c4C(=O)N(C4CCC(=O)NC4=O)C5=O)cc13)C(=O)N2C (centres undefined) | > 100 µM | 4.22 µM | > 100 µM | 0.443 µM | 0.0315 µM | 1.4 µM | > 100 µM |  |  | > 100 µM | > 100 µM | > 100 µM | 0.726 µM | > 100 µM | 0.427 µM |  | 0.204 µM | 3.84 µM | > 100 µM | 3.47 µM
7 | CCOC(=O)C(Cc1ccc(N(CCCl)CCCl)cc1)NC(=O)C(Cc1ccccc1)NC=O (centres undefined) | 0.624 µM |  | 0.167 µM |  |  |  | 0.634 µM |  |  | 0.301 µM | 0.406 µM | 0.289 µM |  | 0.338 µM |  | 0.241 µM |  |  | 0.365 µM | 
8 | C/C(CN1C(=O)c2ccccc2C1=O)=N\NS(=O)(=O)c1cccc(C(=O)O)c1 | > 100 µM |  | > 100 µM |  |  |  | > 100 µM |  | > 100 µM |  |  | > 100 µM |  |  |  | > 100 µM |  |  | > 100 µM | 
9 | Cc1ccc(N=C[N-]c2ccc(C)cc2)cc1.Cc1ccc(N=C[N-]c2ccc(C)cc2)cc1.O=C([O-])C(F)(F)F.O=C([O-])C(F)(F)F.[OH3+].[OH3+].[Rh+2].[Rh+2] | > 100 µM | 23.4 µM | 53.2 µM | 25.4 µM | 23.2 µM | > 100 µM | > 100 µM | 36.5 µM | > 100 µM | > 100 µM |  | 42.1 µM |  |  | 58.6 µM | 55.8 µM |  | 19.4 µM | 67.1 µM | 31.1 µM
10 | Cc1ccc(C)c(N2C(=O)C(=O)C(c3nc4ccccc4o3)C(=O)C2=O)c1 | > 100 µM |  |  |  |  |  | > 100 µM |  | > 100 µM |  |  | > 100 µM |  |  |  | > 100 µM |  |  |  | 
11 | COC1CC(O)C(OC(=O)c2ccccc2)C(C)O1 (centres undefined) | > 100 µM |  | > 100 µM |  |  |  |  |  | > 100 µM | > 100 µM |  | > 100 µM |  |  |  | > 100 µM |  |  | > 100 µM | 
12 | CCC[CH2][Sn]([CH2]CCC)([S]C#N)[S]C#N | 2.36 µM | 0.0451 µM | 0.224 µM | 0.215 µM | 0.224 µM | 1.77 µM | 3.39 µM | 1.15 µM | 2.39 µM | 2.47 µM |  | 8.51 µM |  |  | 1.12 µM | 0.869 µM |  | 2.77 µM | 1.35 µM | 0.85 µM
13 | CCCCCCSSC(=S)N(CC)CC | > 100 µM | 1.66 µM | 21.3 µM | 14.7 µM |  | 28.6 µM | 71.1 µM | 29.7 µM | 91.5 µM | 33.1 µM | 57.6 µM | 38.8 µM | 22.1 µM | 57.9 µM | 40.3 µM |  | 20.5 µM | 20.5 µM | 39.5 µM | 15.3 µM
14 | COc1ccc2oc3c(OC)c(OC)c(OC)cc3c(=O)c2c1 | > 100 µM |  | > 100 µM |  |  |  | > 100 µM |  | > 100 µM | > 100 µM |  | > 100 µM |  |  |  | > 100 µM |  |  | > 100 µM | 
15 | COc1ccccc1NC(=O)C1=C(C)NC(C)=C(C(=O)Nc2ccccc2OC)C1/C=C/c1ccccc1 | > 100 µM |  |  |  |  |  | > 100 µM |  | > 100 µM | > 100 µM |  | > 100 µM |  |  |  | > 100 µM |  |  | > 100 µM | 
16 | CCOC(=O)/C(=C/c1cccc(Cl)c1)N(CC)CC |  |  | 96.2 µM |  |  |  | > 100 µM |  | > 100 µM | > 100 µM |  | > 100 µM |  |  |  | > 100 µM |  |  | > 100 µM | 
17 | CC(C)c1cccc(C(C)C)c1N1C(=O)C(=O)C(c2nc3ccccc3o2)C(=O)C1=O | > 100 µM |  | 50.6 µM |  |  |  | > 100 µM |  | > 100 µM | > 100 µM |  | > 100 µM |  |  |  | > 100 µM |  |  | > 100 µM | 
18 | CCCCCC(O)C(O)CCC[C@H](O)[C@H]1CC[C@H]([C@H]2CC[C@H]([C@H](O)CCCCCCCCCCCCC3=C[C@H](C)OC3=O)O2)O1 (some centres undefined) | 21.4 µM |  | 23.9 µM |  |  |  |  |  | 41.3 µM | 2.93 µM and 14.4 µM | 25.4 µM | 8.31 µM | 6.84 µM |  | 4.61 µM | 8.35 µM | 9.15 µM |  | 6.4 µM | 1.76 µM
19 | COc1cccc2cc(N(C)c3nc(C)nc4c3CCC4)ccc12 | 21.6 µM | < 0.01 µM | < 0.01 µM | < 0.01 µM | < 0.01 µM | < 0.01 µM |  | < 0.01 µM | 14 µM | 13.8 µM | 16.4 µM | 0.608 µM |  |  | < 0.01 µM | 14.7 µM | < 0.01 µM | < 0.01 µM | 31.5 µM | < 0.01 µM

Source: PubChem BioAssay (NCI)
